Values of other authors as cited in patent publication US20090252791A1, “PHARMACEUTICAL COMPOSITIONS COMPRISING A TRIPTAN AND A NONSTEROIDAL ANTI-INFLAMMATORY DRUG” (priority 2008, published 2009).

Solubility in water and in saline: readily soluble
Structure (SMILES): CNS(=O)(=O)Cc1ccc2[nH]cc(CCN(C)C)c2c1 [Sumatriptan, 3-[2-(dimethylamino)ethyl]-N-methyl-1H-indole-5-methanesulfonamide]
